According to patent publication US11420995B2, “Anti-infective and anti-inflammatory compounds” (Synovo GmbH, priority 2017, dated 2022):

Assays:
[1] = system: Staphylococcus aureus Newman; assay: Staphylococcus infection in mice (body weight, CFU recovered from kidney); format: in vivo; details: for Ability of mice to clear an infection by Staphylococcus aureus Newman; bacteria quantified as CFU recovered from a standard sample of kidney: FIG. 6
Salmonella typhimurium = assay: Inhibition of growth of Salmonella typhimurium (optical density of culture); details: after 9-20 h, No compound 0.943
Experimental: (§1) Activity of substances in the inhibition of growth of bacteria. Bacteria including the species Escherichia coli, Bacillus pumilus, Salmonella sp., Micrococcus luteus and Staphylococcus carnosus are cultured in appropriate media (Luria broth for all except S. canosus). Overnight cultures are mixed with fresh medium to reach an optical density at 600 nM of ca. 0.1 AU. These cultures are mixed with solutions of substances to be tested at concentrations ranging from 100 μM to 0.05 μM in a microtitre plate. The growth of the culture is monitored by measuring the optical density at various times after the addition of the inhibitor. Reduction in the rate of increase in optical density corresponds to an inhibition of bacterial growth.

[2] = system: mice treated with dextran sulfate (colitis); assay: Dextran sulfate colitis in mice (inflammatory bowel disease model); format: in vivo, mouse (C57 BLK6 or BALBc); details: N=8; for Body weight and clinical score of BALBc mice at day 9 after commencing 2.5% DSS in water: FIG. 18
From the text: The potential efficacy of a Compound for Inflammatory bowel disease may be modeled as follows. C57 BLK6 or BALBc mice are provided with drinking water containing 2.5% or 2.8% dextran sulfate. Animals are weighed and observed for signs of intestinal disturbance daily. Signs include diarrhea or occult blood. Compound is formulated by mixing with a solution of 0.1 up to 1% citric acid depending on concentration. Compound is provided by oral gavage daily.

[3] = system: Salmonella typhimurium phagocytosed by J774 murine cells; assay: Intracellular killing of S. Typhimurium by mouse macrophage cellline J 774 A.1 (surviving CFU); format: cell-based; details: FIG. 4; compared with azithromycin
Experimental: Substances may act directly on bacteria, or they may act to promote the killing of the bacteria by phagocytes. To measure this effect, cultures murine macrophages are incubated with a test bacteria and the number of bacteria surviving are counted in terms of the viable colony forming units (CFU). The method for determining the rate of phagocytosis is as follows:
Intracellular killing of S. Typhimurium by mouse macrophage cellline J 774 A.1 • seed a monolayer of cells in 200 μl Media into the wells of a 96 well plates • incubate O/N 37° C. • remove medium and add fresh medium • add Bacteria (Salmonella typhimurium) e.g. 5 μl of 1:100 diluted O/N culture (MOI=10) (=10^8 cfu/ml) • centrifuge 10 min 800 g (2000 rpm) • incubate 20-30 minutes at 37° C. (phagocytosis) • remove media • wash 1-2× with PBS • add medium with 100 μg/ml Gentamicin, stock: 10 mg/ml (=1:100) • incubate 45′ at 37° C. • wash 2× with PBS • add fresh medium (200 μl/well) • add compounds to test • incubate 2-3 hours at 37° C. • remove medium • lyse cells with water: add 200 μl H2O incubate 10′, push a few times through 27 gauge needle using a 1 ml syringe • plate […] 1:10 dilution onto LB-agar plates (=1:100 dil)
Overnight culture of Salmonella thyphimurium=˜[…]
Overnight culture of Staphylococcus carnosus=˜5×10^9 cfu/ml MOI=50 (=5 μl of 1:10 dil. O/N culture)
MOI=Multiplicity of Infection […]

Staphylococcus carnosus = assay: Inhibition of growth of Staphylococcus carnosus (optical density of culture); details: after 9-20 h, No compound 0.887
Experimental: as §1

SMILES	Ability of mice to clear an infection by Staphylococcus aureus Newman; bacteria quantified as CFU recovered from a standard sample of kidney [1]	Absorbance of culture medium at 600 nm (Salmonella typhimurium; Conc. 0.8 μM)	Absorbance of culture medium at 600 nm (Salmonella typhimurium; Conc. 2 μM)	Absorbance of culture medium at 600 nm (Salmonella typhimurium; Conc. 3 μM)	Absorbance of culture medium at 600 nm (Salmonella typhimurium; Conc. 6 μM)	Absorbance of culture medium at 600 nm (Salmonella typhimurium; Conc. 13 μM)	Absorbance of culture medium at 600 nm (Salmonella typhimurium; Conc. 25 μM)	Absorbance of culture medium at 600 nm (Salmonella typhimurium; Conc. 50 μM)	Absorbance of culture medium at 600 nm (Salmonella typhimurium; Conc. 100 μM)	Absorbance of culture medium at 600 nm (Staphylococcus carnosus; Conc. 0.8 μM)	Absorbance of culture medium at 600 nm (Staphylococcus carnosus; Conc. 2 μM)	Absorbance of culture medium at 600 nm (Staphylococcus carnosus; Conc. 3 μM)	Absorbance of culture medium at 600 nm (Staphylococcus carnosus; Conc. 6 μM)	Absorbance of culture medium at 600 nm (Staphylococcus carnosus; Conc. 13 μM)	Absorbance of culture medium at 600 nm (Staphylococcus carnosus; Conc. 25 μM)	Absorbance of culture medium at 600 nm (Staphylococcus carnosus; Conc. 50 μM)	Absorbance of culture medium at 600 nm (Staphylococcus carnosus; Conc. 100 μM)	Body weight and clinical score of BALBc mice at day 9 after commencing 2.5% DSS in water [2]	further results
CC[C@H]1OC(=O)[C@H](C)[C@@H](O[C@H]2C[C@@](C)(OC)[C@@H](O)[C@H](C)O2)[C@H](C)[C@@H](O[C@@H]2O[C@H](C)C[C@H](N(C)C)[C@H]2O)[C@](C)(O)C[C@@H](C)CN(C)[C@H](C)[C@@H](O)[C@]1(C)O [Azithromycin, reference compound]	decreases recovered bacteria in a dose responsive manner																		
CC[C@H]1OC(=O)[C@H](C)[C@@H](O[C@H]2C[C@@](C)(OC)[C@@H](O)[C@H](C)O2)[C@H](C)[C@@H](O[C@@H]2O[C@H](C)CC(N(C)C)[C@H]2O[N+](=O)[O-])[C@](C)(O)C[C@@H](C)CN(C)[C@H](C)[C@@H](OC(C)=O)[C@]1(C)O (stereo partly shown) [Compound E-2]	decreases recovered bacteria in a dose responsive manner	0.452	0.441	0.410	0.382	0.621	0.314	0.168	0.251	0.760	0.766	0815	0.626	0.542	0.456	0.425	0.395		Body weight of BALBc mice at day 7 after commencing 2.5% DSS in water ([2]; FIG. 17): protects against weight loss; Killing of phagocytosed Salmonella typhimurium by murine macrophages [3]: stimulates the killing of bacterial cells by macrophages
CCCCCCCCCCN(C)C1C[C@@H](C)O[C@@H](O[C@@H]2[C@@H](C)[C@H](O[C@H]3C[C@@](C)(OC)[C@@H](O)[C@H](C)O3)[C@@H](C)C(=O)O[C@H](CC)[C@@](C)(O)[C@H](O)[C@@H](C)N(C)C[C@H](C)C[C@@]2(C)O)[C@@H]1O (stereo partly shown) [Compound E-3]																		stimulate inflammation	
CCC(=O)O[C@@H]1[C@@H](C)N(C)C[C@H](C)C[C@@](C)(O)[C@H](O[C@@H]2O[C@H](C)C[C@H](N(C)C)[C@H]2O[N+](=O)[O-])[C@@H](C)[C@H](O[C@H]2C[C@@](C)(OC)[C@@H](O)[C@H](C)O2)[C@@H](C)C(=O)O[C@H](CC)[C@@]1(C)O [Compound E-5]	decreases recovered bacteria in a dose responsive manner	0.574	0.568	0.511	0.478	0.437	0.396	0.395	0.390	0.819	0.726	0.805	0.525	0.452	0.403	0.347	0.302		Response of mice to an infection by Staphylococcus (recovery of weight) ([1]; FIG. 5): faster recovery of weight due to faster clearance of bacteria
CC[C@H]1OC(=O)[C@H](C)[C@@H](O[C@H]2C[C@@](C)(OC)[C@@H](O)[C@H](C)O2)[C@H](C)[C@@H](O[C@@H]2O[C@H](C)CC(N(C)C)[C@H]2OC(C)=O)[C@](C)(O)C[C@@H](C)CN(C)[C@H](C)[C@@H](O[N+](=O)[O-])[C@]1(C)O (stereo partly shown) [Compound E-9]		0.300	0.272	0.327	0.348	0.382	0.395	0.319	0.221	0.765	0.737	0.830	0.752	0.677	0.426	0.522	0.545		
CCC(=O)O[C@@H]1C(N(C)C)C[C@@H](C)O[C@H]1O[C@@H]1[C@@H](C)[C@H](O[C@H]2C[C@@](C)(OC)[C@@H](OC(=O)CC)[C@H](C)O2)[C@@H](C)C(=O)O[C@H](CC)[C@@](C)(O)[C@H](OC(=O)CC)[C@@H](C)N(C)C[C@H](C)C[C@@]1(C)OC(=O)CC (stereo partly shown) [Compound E-51]																			Body weight and clinical score of BALBc mice at day 7 after commencing 2.5% DSS in water ([2]; FIG. 19, weight greater than Vehicle): protect against inflammation
CCCC(=O)O[C@@H]1C(N(C)C)C[C@@H](C)O[C@H]1O[C@@H]1[C@@H](C)[C@]2(O)O[C@@]1(C)C[C@@H](C)CN(C)[C@H](C)[C@@H](O)[C@](C)(O)[C@@H](CC)OC(=O)[C@@H]2C (stereo partly shown) [Compound E-238]																		stimulate inflammation	
CCCC(=O)O[C@@H]1[C@@H](C)N(C)C[C@H](C)C[C@@](C)(O)[C@H](O[C@@H]2O[C@H](C)CC(N(C)C)[C@H]2O)[C@@H](C)[C@H](O[C@H]2C[C@@](C)(OC)[C@@H](OC(=O)CCC)[C@H](C)O2)[C@@H](C)C(=O)O[C@H](CC)[C@@]1(C)O (stereo partly shown) [Compound E-553]																		stimulate inflammation	
